Assay results as given in patent publication US20100316529A1, “Anti-Microbial Systems and Methods” (priority 2001, published 2010).
Several values for one entry are separate records, joined by “and”; a condition that tells them apart may be missing. Equal values may be shown once.

What was measured:
[1] = tested on: Kleb. ornitholytica; assay: EDTA salt dilution test, MIC/MBC; assay type: cell-based
[2] = tested on: Steno. maltophilia; assay: EDTA salt dilution test, MIC/MBC; assay type: cell-based
[3] = tested on: Acinetobacter baumanii; assay: EDTA salt dilution test, MIC/MBC; assay type: cell-based; settings: two entries, Exhibit A2
[4] = tested on: Ent. cloacae; assay: EDTA salt dilution test, MIC/MBC; assay type: cell-based; settings: three entries
[5] = tested on: Coryneform strait/amy; assay: EDTA salt dilution test, MIC/MBC; assay type: cell-based
[6] = tested on: variety of yeasts
[7] = tested on: C. lucitaniae; assay: EDTA agar dilution method, yeasts, MIC/MBC; assay type: cell-based; settings: Exhibit C
From the text: (§1) Protocol 3: Agar dilutions.
Do this until all the media is used up.

[8] = tested on: C. parapsilosis; assay: EDTA agar dilution method, yeasts, MIC/MBC; assay type: cell-based; settings: Exhibit C
Protocol: (§2) The bactericidal effects were measured as the Minimum Bactericidal Concentration (MBC), while the inhibitory effects were measured as the Minimum Inhibitory Concentration (MIC). In each case, the concentration was measured as milligrams of the disinfectant salt per milliliter of water (mg/ml).
as §1
(§3) Prepare nutrient agar plates with increasing concentrations of EDTA, 0, 0.5, 1, 1.5, 2, 4, 6, 8, 10, 15, 20, 25, 30 mg/mL, using the following method. • Pour 300 mL distilled water into a sterile glass bottle. • Add the appropriate amount of EDTA. This is the concentration desired ×300, in grams. • Once the EDTA has fully dissolved, add 8.4 g of Nutrient agar powder (Oxoid). Mix thoroughly. • Do this for each concentration of EDTA required. […] Do this until all the media is used up. Label the plates with the concentration of EDTA they contain. • These plates can then be stored, until they are needed, in a 4° C. fridge. • Use an automatic plate inoculator to inoculate each plate with 21 organisms.

[9] = tested on: C. guilliermondii; assay: EDTA agar dilution method, yeasts, MIC/MBC; assay type: cell-based; settings: Exhibit C
Protocol: as §2, §1, §3

[10] = tested on: C. tropicalis; assay: EDTA agar dilution method, yeasts, MIC/MBC; assay type: cell-based; settings: Exhibit C
Protocol: as §2, §1, §3

[11] = tested on: C. albicans; assay: EDTA agar dilution method, yeasts, MIC/MBC; assay type: cell-based; settings: three entries, Exhibit C
Protocol: as §2, §1, §3

[12] = tested on: C. glabrata; assay: EDTA agar dilution method, yeasts, MIC/MBC; assay type: cell-based; settings: two entries, Exhibit C
Protocol: as §2, §1, §3

[13] = tested on: Ent. faeculm; assay: EDTA salt dilution test, MIC/MBC; assay type: cell-based
[14] = tested on: Kleb. oxytoca; assay: EDTA salt dilution test, MIC/MBC; assay type: cell-based
[15] = tested on: Cornyeform amycolatum; assay: EDTA salt dilution test, MIC/MBC; assay type: cell-based
[16] = tested on: S. epidermidis; assay: EDTA salt dilution test, MIC/MBC; assay type: cell-based; settings: two entries
Protocol: (§4) Protocol one: Broth dilutions:
(§5) Inoculate a 25 ml nutrient broth (Oxoid No2) in a sterile universal container with one of the following organisms; Pseudomonas aeruginosa, Proteus Mirabilis, E. coli, Klebsiella pneumoniae, Staph aureus, Coagulase negative staphylococci, Enterococcus faecalis or MRSA.
(§6) Incubate the broth at 37° C. overnight.
(§7) To make these concentrations put the EDTA needed for 10 mLs in only 9 mLs of broth in sterile universal containers, as this will be diluted further when the organisms are added.
(§8) Dilute the overnight broth cultures to 10^7 organisms/mL using more sterile nutrient broth.
(§9) Add 1 mL of this diluent to each of the EDTA series broths. This gives a final concentration of 10^6 organism/mL in the EDTA broths.
(§10) Incubate for 18 hours at 37° C.
(§11) Next day visually read the MIC's by observing the turbidity of the broths.
(§12) Plate out 1 uL of each dilution onto fresh blood agar plate and spread using a sterile plastic spreader.
(§13) Incubate overnight at 37° C.
(§14) Next day read the MBC's by performing colony counts.

[17] = tested on: S. aureus; assay: EDTA salt dilution test, MIC/MBC; assay type: cell-based; settings: five entries, Exhibit A2
Protocol: as §4, §5, §6, §7, §8, §9, §10, §11, §12, §13, §14

[18] = tested on: Proteus mirabilis; assay: EDTA salt dilution test, MIC/MBC; assay type: cell-based; settings: two entries
Protocol: as §4, §5, §6, §7, §8, §9, §10, §11, §12, §13, §14

[19] = tested on: Kleb. pnemoniae; assay: EDTA salt dilution test, MIC/MBC; assay type: cell-based; settings: two entries
Protocol: as §4, §5, §6, §7, §8, §9, §10, §11, §12, §13, §14

[20] = tested on: MRSA; assay: EDTA salt dilution test, MIC/MBC; assay type: cell-based; settings: five entries, Exhibit A2
Protocol: as §4, §5, §6, §7, §8, §9, §10, §11, §12, §13, §14

[21] = tested on: S. lentus; assay: EDTA salt dilution test, MIC/MBC; assay type: cell-based
Protocol: as §4, §5, §6, §7, §8, §9, §10, §11, §12, §13, §14

[22] = tested on: Ent. faecalis; assay: EDTA salt dilution test, MIC/MBC; assay type: cell-based
Protocol: as §4, §5, §6, §7, §8, §9, §10, §11, §12, §13, §14

[23] = tested on: VRE; assay: EDTA salt dilution test, MIC/MBC; assay type: cell-based; settings: two entries
Protocol: as §4, §5, §6, §7, §8, §9, §10, §11, §12, §13, §14

[24] = tested on: Pseudomonas sp.; assay: EDTA salt dilution test, MIC/MBC; assay type: cell-based
Protocol: as §4, §5, §6, §7, §8, §9, §10, §11, §12, §13, §14

[25] = tested on: Pseudomonas aeruginosa; assay: EDTA salt dilution test, MIC/MBC; assay type: cell-based; settings: two entries
Protocol: as §4, §5, §6, §7, §8, §9, §10, §11, §12, §13, §14

[26] = tested on: S. capitis; assay: EDTA salt dilution test, MIC/MBC; assay type: cell-based; settings: two entries, Exhibit A2
Protocol: as §4, §5, §6, §7, §8, §9, §10, §11, §12, §13, §14

[27] = tested on: S. xylosus; assay: EDTA salt dilution test, MIC/MBC; assay type: cell-based
Protocol: as §4, §5, §6, §7, §8, §9, §10, §11, §12, §13, §14

[28] = tested on: S. simulans; assay: EDTA salt dilution test, MIC/MBC; assay type: cell-based
Protocol: as §4, §5, §6, §7, §8, §9, §10, §11, §12, §13, §14

[29] = tested on: Proteus vulgaris; assay: EDTA salt dilution test, MIC/MBC; assay type: cell-based

With `O=C([O-])CN(CCN(CC(=O)[O-])CC(=O)[O-])CC(=O)[O-].[Na+].[Na+].[Na+].[Na+]` [Tetrasodium EDTA] the “MBC, minimum concentration required to kill an entire population” value (“MBC, minimum concentration required” for short) ([1]; Exhibit A1) was 30000 µg/mL, the “MIC, minimum concentration required to inhibit growth” value (“MIC … to inhibit growth” below) ([1]; Exhibit A2) was 4000 µg/mL and the “MBC, minimum concentration required” value ([2]; Exhibit A1) was 4000 µg/mL. The “MIC … to inhibit growth” value ([2]; Exhibit A2) was 1000 µg/mL, the “MIC … to inhibit growth” value [3] was <500 µg/mL and 1000 µg/mL and the “MBC, minimum concentration required” value ([4]; Exhibit A1) was 20000 µg/mL. For the same compound, the “MIC … to inhibit growth” value ([4]; Exhibit A2) was 8000 µg/mL and 10000 µg/mL, the “MBC, minimum concentration required” value ([5]; Exhibit A1) was <500 µg/mL and the “MIC … to inhibit growth” value ([5]; Exhibit A2) was <500 µg/mL. The “MIC values compared with the other two EDTA compounds” value ([6]; Exhibit C) was “lower than the MIC values for the other two EDTA compounds”, the “MBC values against yeasts compared with bacteria” value ([6]; Exhibit C versus Gram negative and Gram positive organisms) was “comparable to the MBC values for the Gram negative and Gram positive organisms” and the “MBC's, Minimum Bactericidal Concentration” value [7] was 6000 µg/mL. For the same compound, the “MIC's, Minimum Inhibitory Concentration” value [7] was 500 µg/mL, the “MBC's, Minimum Bactericidal Concentration” value [8] was 8000 µg/mL and the “MIC's, Minimum Inhibitory Concentration” value [8] was 500 µg/mL. For the same compound, the “MBC's, Minimum Bactericidal Concentration” value [9] was 500 µg/mL, the “MIC's, Minimum Inhibitory Concentration” value [9] was 500 µg/mL and the “MBC's, Minimum Bactericidal Concentration” value [10] was 10000 µg/mL. For the same compound, the “MIC's, Minimum Inhibitory Concentration” value [10] was 500 µg/mL, the “MIC's, Minimum Inhibitory Concentration” value [11] was 500 µg/mL and the “MIC's, Minimum Inhibitory Concentration” value [12] was 500 µg/mL. The “MIC … to inhibit growth” value ([13]; Ent. faecuim, Exhibit A2) was <500 µg/mL, the “MBC, minimum concentration required” value ([13]; Ent. faeculm, Exhibit A1) was >30000 µg/mL and the “MBC, minimum concentration required” value ([14]; Exhibit A1) was 8000 µg/mL. For the same compound, the “MIC … to inhibit growth” value ([14]; Exhibit A2) was 4000 µg/mL, the “MBC, minimum concentration required” value ([15]; Exhibit A1) was <500 µg/mL and the “MIC … to inhibit growth” value ([15]; Exhibit A2) was <500 µg/mL. The “MBC, minimum concentration required” value ([16]; Exhibit A1) was 1000 µg/mL and 2000 µg/mL, the “MIC … to inhibit growth” value ([16]; Exhibit A2) was 1000 µg/mL and the “MIC … to inhibit growth” value [17] was <500 µg/mL and 1000 µg/mL. The “MBC, minimum concentration required” value ([18]; Exhibit A1) was 20000 µg/mL, the “MIC … to inhibit growth” value ([18]; Exhibit A2) was 1000 µg/mL and the “MBC, minimum concentration required” value ([19]; Exhibit A1) was 15000 µg/mL. For the same compound, the “MIC … to inhibit growth” value ([19]; Exhibit A2) was 8000 µg/mL and 4000 µg/mL, the “MIC … to inhibit growth” value [20] was 1000 µg/mL and the “MBC, minimum concentration required” value ([21]; Exhibit A1) was 30000 µg/mL. The “MIC … to inhibit growth” value ([21]; Exhibit A2) was 1000 µg/mL, the “MBC, minimum concentration required” value ([22]; Exhibit A1) was 10000 µg/mL and the “MIC … to inhibit growth” value ([22]; Exhibit A2) was 1000 µg/mL. The “MBC, minimum concentration required” value ([23]; Exhibit A1) was 15000 µg/mL and >30000 µg/mL, the “MIC … to inhibit growth” value ([23]; Exhibit A2) was 1000 µg/mL and the “MBC, minimum concentration required” value ([24]; Exhibit A1) was 30000 µg/mL. The “MIC … to inhibit growth” value ([24]; Exhibit A2) was 2000 µg/mL, the “MBC, minimum concentration required” value ([25]; Exhibit A1) was 20000 µg/mL and the “MIC … to inhibit growth” value ([25]; Exhibit A2) was 2000 µg/mL. The “MIC … to inhibit growth” value [26] was 1000 µg/mL and <500 µg/mL, the “MBC, minimum concentration required” value ([27]; Exhibit A1) was 25000 µg/mL and the “MIC … to inhibit growth” value ([27]; Exhibit A2) was <500 µg/mL. The “MBC, minimum concentration required” value ([28]; Exhibit A1) was 30000 µg/mL, the “MIC … to inhibit growth” value ([28]; Exhibit A2) was 1000 µg/mL and the “MBC, minimum concentration required” value ([29]; Exhibit A1) was 20000 µg/mL. The “MIC … to inhibit growth” value ([29]; Exhibit A2) was 4000 µg/mL.
